Laboratory results published in patent US10285936B2, “Injectable composition with aromatase inhibitor” (Laboratorios Farmacéuticos Rovi, S.A., priority 2010, dated 2019).
Read-outs that look alike come from different tables or passages of the source.

Key:
[1] = type: in vitro ADME; conditions: for stability of samples at room temperature: 6 h; for storage of processed samples without change in precision and accuracy: 24 h; for long term stability of samples: 132 days
Description: For quantification of letrozole in dog and rabbit plasma a technique based on high performance liquid chromatography with fluorescence detector HPLC-FLD […] using a liquid-liquid extraction with […] as the organic solvent and resuspension for analysis in reverse phase with isocratic elution. Carvedilol was used as the internal standard and the process time was 8.5 min with a letrozole retention time of 7.8 min and applying wavelengths of 240 nm (λ excitation) and 315 nm (λ emission). The validated concentration interval was from 5 (LLOQ) to 500 ng/mL, that is with a lower limit of quantification or minimum quantifiable analyte concentration of the analytical technique of 5 ng/mL and a maximum validated concentration of 500 ng/mL. Calibration curves obtained were characterized with a correlation coefficient of over 0.99. Precision and intra-assay and inter-assay accuracy was less than 20% for the LLOQ and less than 15% for the other QCs, that is, of the other known concentration samples used as quality controls in conducting the analysis. The bioanalytical method was validated over three days and the results met the acceptance criteria described in the FDA guide: “Bioanalytical Method Validation”.
Processed samples could be stored in the sampler at 4° C. for 24 hours without noticing any change in the precision and accuracy of the analysis.

[2] = Letrozole particle size distribution by laser diffraction (Malvern Mastersizer 2000); type: physicochemical; conditions: % volume; suspended in water until obscuration of 9.41%
Description: If not otherwise specified, the particle size distribution was determined by light scattering technique using laser light diffraction in wet mode. It is known that particle size distribution results can be altered as a function of the material treatment such the use of high concentrate surfactant agents and/or strong force energies (vortex, sonication, etc). If nothing else is mentioned, drug is not treated and samples are prepared by direct addition to the tank under moderate stirring (2000-3500 rpm). The methodology applied on present invention to determine the drug particle size distribution mimics in a more faithfully way the behavior of the drug powder on the injectable formulation herein described than other methods which apply force energies to the sample and/or use high concentrate surfactant agents for preparing the samples in order to achieve high degrees of powder disaggregation that cannot be simulated during the manual reconstitution process of the formulation.
Letrozole particle size in formulation 2 was characterized by the technique of laser ray diffraction (Malvern Mastersizer 2000, suspended in water until obscuration of 9.41%) and had the following distribution (in % volume): d(0.1)=38.21 μm, d(0.5)=141.35 μm and d(0.9)=312.13 μm.

Which results are given for `N#Cc1ccc(C(c2ccc(C#N)cc2)n2cncn2)cc1` [Letrozole, 4,4′-(1,2,4-triazol-1-ylmethyl)dibenzonitrile]?
effect of cycles of freezing/thawing on stability ([1]; dog): did not affect the stability; stability of samples at room temperature ([1]; dog): up to 6 hours; storage of processed samples without change in precision and accuracy ([1]; dog): 24 h; long term stability of samples ([1]; dog): 132 days; effect of cycles of freezing/thawing on stability ([1]; rabbit): did not affect the stability; stability of samples at room temperature ([1]; rabbit): up to 6 hours; storage of processed samples without change in precision and accuracy ([1]; rabbit): 24 h; long term stability of samples ([1]; rabbit): 132 days; d(0.1) [2]: 38.21 μm; d(0.5) [2]: 141.35 μm; d(0.9) [2]: 312.13 μm
